Source: ChEMBL document CHEMBL3421587, “Discovery of novel small-molecule antagonists for GluK2” (Bioorg Med Chem Lett, 2015)
Calls of active or inactive are those of the source. The calls are words filed in the database; no cut-off is given here.

Legend:
Type in all cases: cell-based
[1] = biological target: Glutamate receptor ionotropic, kainate 2 (Homo sapiens) (UniProt Q13002); experiment: Antagonist activity at GluK2 (unknown origin) transfected in HEK293 cells assessed as inhibition of L-glutamate-induced peak current responses at 1 mM compound added in background solution by electrophysiological analysis relative to control
Chain of Glutamate receptor ionotropic, kainate 2 (Homo sapiens) (Q13002 whole entry): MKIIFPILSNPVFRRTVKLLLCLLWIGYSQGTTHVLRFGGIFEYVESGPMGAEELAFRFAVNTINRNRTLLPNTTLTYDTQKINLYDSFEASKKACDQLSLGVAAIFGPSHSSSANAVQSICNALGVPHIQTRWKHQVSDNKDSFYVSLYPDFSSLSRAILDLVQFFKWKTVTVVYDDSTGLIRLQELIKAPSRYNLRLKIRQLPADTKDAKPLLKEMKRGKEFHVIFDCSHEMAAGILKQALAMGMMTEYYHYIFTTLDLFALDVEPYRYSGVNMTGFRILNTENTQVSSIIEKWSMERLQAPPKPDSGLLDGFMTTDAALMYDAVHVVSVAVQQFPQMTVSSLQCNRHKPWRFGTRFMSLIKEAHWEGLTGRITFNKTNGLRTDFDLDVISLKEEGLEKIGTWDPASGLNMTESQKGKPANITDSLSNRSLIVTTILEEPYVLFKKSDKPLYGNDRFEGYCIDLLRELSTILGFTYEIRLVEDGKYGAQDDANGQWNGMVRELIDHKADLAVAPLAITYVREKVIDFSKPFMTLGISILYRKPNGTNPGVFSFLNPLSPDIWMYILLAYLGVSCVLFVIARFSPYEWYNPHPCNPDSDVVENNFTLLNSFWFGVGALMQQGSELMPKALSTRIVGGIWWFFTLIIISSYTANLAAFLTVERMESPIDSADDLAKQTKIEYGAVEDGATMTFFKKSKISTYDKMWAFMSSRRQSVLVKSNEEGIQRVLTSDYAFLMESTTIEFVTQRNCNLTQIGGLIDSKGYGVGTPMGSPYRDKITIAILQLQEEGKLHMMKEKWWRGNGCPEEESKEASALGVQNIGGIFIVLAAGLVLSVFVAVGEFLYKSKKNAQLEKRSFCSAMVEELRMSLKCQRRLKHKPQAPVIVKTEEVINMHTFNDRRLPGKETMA

[2] = biological target: Glutamate receptor ionotropic, kainate 2 (Homo sapiens) (UniProt Q13002); experiment: Antagonist activity at GluK2 (unknown origin) transfected in HEK293 cells assessed as inhibition of L-glutamate-induced peak current response at 1 mM compound added in background and L-glutamate solution by electrophysiological analysis relative to control
[3] = biological target: Glutamate receptor ionotropic, kainate 2 (Homo sapiens) (UniProt Q13002); experiment: Agonist activity at GluK2 (unknown origin) transfected in HEK293 cells assessed as current responses at 1 mM by electrophysiological analysis

Structure (SMILES) | inhibition [1] | inhibition [2] | Activity [3]
CC(C)C[C@@H](CC(=O)O)[C@H](N)C(=O)O | inactive |  | 
CC[C@@H](CC(=O)O)[C@H](N)C(=O)O | 46% | 53% | inactive
N[C@H](C(=O)O)[C@H](CC(=O)O)c1ccccc1 | inactive |  | 
C[C@@H](CC(=O)O)[C@H](N)C(=O)O | 38% |  | inactive
CCC[C@@H](CC(=O)O)[C@H](N)C(=O)O | 95% |  | 
